Experimental data: ChEMBL document CHEMBL1201861, “Genomics of Drug Sensitity in Cancer screening data, Wellcome Trust Sanger Institute”

What was measured:
KARPAS-422 = assay: cells; format: functional, cell-based, Homo sapiens; conditions: Homo sapiens, KARPAS-422
Description: SANGER: Inhibition of human KARPAS-422 cell growth in a cell viability assay.

EB2 = assay: cells; format: functional, cell-based, Homo sapiens; conditions: Homo sapiens, EB2;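 also: growth inhibition of EB2 cells, read out with a cell viability assay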
Description: SANGER: Inhibition of human EB2 cell growth in a cell viability assay.

ECC4 = assay: cells; format: functional, cell-based, Homo sapiens; conditions: Homo sapiens, ECC4;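 also: growth inhibition of ECC4 cells, read out with a cell viability assay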
Description: SANGER: Inhibition of human ECC4 cell growth in a cell viability assay.

SCC-3 = assay: cells; format: functional, cell-based, Homo sapiens; conditions: Homo sapiens, SCC-3;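 also: cell viability assay measuring inhibition of SCC-3 cell growth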
Description: SANGER: Inhibition of human SCC-3 cell growth in a cell viability assay.

RPMI 8402 = assay: SANGER: Inhibition of human RPMI-8402 cell growth in a cell viability assay.; format: functional, cell-based; conditions: Homo sapiens, RPMI 8402; read-out: IC50
REH = assay: cells; format: functional, cell-based, Homo sapiens; conditions: Homo sapiens, REH;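 also: growth inhibition of REH cells determined with a cell viability read-out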
Description: SANGER: Inhibition of human REH cell growth in a cell viability assay.

PF-382 = assay: cells; format: functional, cell-based, Homo sapiens; conditions: Homo sapiens, PF-382
Description: SANGER: Inhibition of human PF-382 cell growth in a cell viability assay.

Raji = assay: cells; format: functional, cell-based, Homo sapiens; conditions: Homo sapiens, Raji;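 also: cell viability assay measuring inhibition of Raji cell growth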
Description: SANGER: Inhibition of human Raji cell growth in a cell viability assay.

Kasumi 1 = assay: cells; format: functional, cell-based, Homo sapiens; conditions: Homo sapiens, Kasumi 1;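 also: growth inhibition of human Kasumi-1 cells, read out by a cell viability assay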
Description: SANGER: Inhibition of human KASUMI-1 cell growth in a cell viability assay.

NCI-H2081 = assay: cells; format: functional, cell-based, Homo sapiens; conditions: Homo sapiens, NCI-H2081;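 also: growth inhibition of human NCI-H2081 cells, read out with a cell viability assay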
Description: SANGER: Inhibition of human NCI-H2081 cell growth in a cell viability assay.

NCI-H2196 = assay: cells; format: functional, cell-based, Homo sapiens; conditions: Homo sapiens, NCI-H2196;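 also: cell viability assay used as the readout of growth inhibition in NCI-H2196 cells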
Description: SANGER: Inhibition of human NCI-H2196 cell growth in a cell viability assay.

TE-15 = assay: cells; format: functional, cell-based, Homo sapiens; conditions: Homo sapiens, TE-15;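 also: cell viability readout of growth inhibition in TE-15 cells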
Description: SANGER: Inhibition of human TE-15 cell growth in a cell viability assay.

Row | Compound | IC50 (KARPAS-422) [nM] | IC50 (EB2) [nM] | IC50 (ECC4) [nM] | IC50 (SCC-3) [nM] | IC50 (RPMI 8402) [nM] | IC50 (REH) [nM] | IC50 (PF-382) [nM] | IC50 (Raji) [nM] | IC50 (Kasumi 1) [nM] | IC50 (NCI-H2081) [nM] | IC50 (NCI-H2196) [nM] | IC50 (TE-15) [nM]
1 | COc1cc(-c2nn([C@H]3CC[C@H](N4CCN(C(C)=O)CC4)CC3)c3ncnc(N)c23)ccc1NC(=O)c1cc2ccccc2n1C | > 5120 | > 5120 | > 5120 | > 5120 | > 5120 | > 5120 | > 5120 | > 5120 | > 5120 | > 5120 | > 5120 | 279
2 | OCCCNc1cc(-c2ccnc(Nc3cccc(Cl)c3)n2)ccn1 | 57.2 | > 256 | > 256 | 37.8 | 70.9 | > 256 | 104 | 42.1 | > 256 | > 256 | 112 | 39.4
3 | Cc1ccc(-c2c(C(=O)CCl)n(CCCO)c3ncnc(N)c23)cc1 | > 4000 | > 4000 | > 4000 | > 4000 | > 4000 | > 4000 | 1220 | > 4000 | > 4000 | > 4000 | > 4000 | 1820
4 | C#Cc1cccc(Nc2ncnc3cc(OCCOC)c(OCCOC)cc23)c1 [ERLOTINIB] | > 2000 | > 2000 | > 2000 | > 2000 | – | > 2000 | > 2000 | > 2000 | > 2000 | > 2000 | > 2000 | > 2000
